Laboratory results reported in patent publication US10376499B2, “Combination therapy for treatment of resistant bacterial infections” (priority 2014, dated 2019).
≈ marks a conversion by molar mass, not a printed value.

Columns and labels:
Enterobacter cloacae = assay: MIC, recent Enterobacteriaceae clinical isolates: Enterobacter cloacae (Examples 7, 11); format: cell-based
Citrobacter spp = assay: MIC, recent Enterobacteriaceae clinical isolates: Citrobacter spp (Examples 7, 11); format: cell-based
A. baumannii [1] = assay: Neutropenic mouse thigh and lung infection models; details: neutropenic CD-1 mice, subcutaneous q3h, sulbactam+compound 1 at 4:1 ratio, 24 h, isolate containing AmpC, OXA-66, OXA-72, TEM-1, FIG. 4
A. baumannii [2] = assay: MIC by broth microdilution (CLSI), panel of 60 A. baumannii clinical isolates (Example 1); details: Acinetobacter baumannii

CC1(C)[C@H](C(=O)O)N2C(=O)C[C@H]2S1(=O)=O [Sulbactam, (2S,5R)-3,3-dimethyl-7-oxo-4-thia-1-azabicyclo[3.2.0]heptane-2-carboxylic acid 4,4-dioxide]
MIC50 (Enterobacter cloacae): 64 µg/mL (≈ 274 µM)
MIC (Enterobacter cloacae; Enterobacter cloacae ARC4438, AmpC+): 128 µg/mL (≈ 549 µM)
MIC (Enterobacter cloacae; Enterobacter cloacae ARC4444, AmpC+, MIR-8[I175L]): 64 µg/mL (≈ 274 µM)
MIC (Enterobacter cloacae; Enterobacter cloacae ARC4458, AmpC+, ACT-2[V312M]): 64 µg/mL (≈ 274 µM)
MIC (Enterobacter cloacae; Enterobacter cloacae ARC4473, SHV-5+, AmpC+, DHA-1+, TEM-1+): 128 µg/mL (≈ 549 µM)
MIC (Enterobacter cloacae; Enterobacter cloacae ARC4489, AmpC+): 128 µg/mL (≈ 549 µM)
MIC (Enterobacter cloacae; Enterobacter cloacae ARC4492, AmpC+): 256 µg/mL (≈ 1100 µM)
MIC90 (Enterobacter cloacae; N 10): 128 µg/mL (≈ 549 µM)
MIC range (Enterobacter cloacae; N 10): 64 to 256 µg/mL
MIC50 (Citrobacter spp; Citrobacter): 256 µg/mL (≈ 1100 µM)
MIC90 (Citrobacter spp; Citrobacter): > 256 µg/mL
MIC (Citrobacter spp; Citrobacter braakii ARC3660, CTX-M-15): 32 µg/mL (≈ 137 µM)
MIC (Citrobacter spp; Citrobacter freundii ARC3522, AmpC, TEM-1, CMY65): > 256 µg/mL
MIC (Citrobacter spp; Citrobacter freundii ARC3883, KPC-2): 256 µg/mL (≈ 1100 µM)
MIC (Citrobacter spp; Citrobacter freundii ARC3884, KPC-2): 256 µg/mL (≈ 1100 µM)
MIC (Citrobacter spp; Citrobacter freundii ARC3885, AmpH, TEM-1, SHV-5, CMY-6, CMY-13): 256 µg/mL (≈ 1100 µM)
MIC (Citrobacter spp; Citrobacter koseri ARC2001, ESBL): 64 µg/mL (≈ 274 µM)
MIC (Citrobacter spp; Citrobacter koseri ARC2002, ESBL): 64 µg/mL (≈ 274 µM)
efficacy (mean delta log CFU) (A. baumannii [1]): failed to show efficacy
MIC50 (A. baumannii [2]): 16 µg/mL (≈ 68.6 µM)
MIC90 (A. baumannii [2]): 32 µg/mL (≈ 137 µM)
MIC (A. baumannii [2]; strain ARC593, OXA-98): 1 µg/mL (≈ 4.29 µM)
MIC (A. baumannii [2]; strain ARC2058, OXA-95): 2 µg/mL (≈ 8.57 µM)
MIC (A. baumannii [2]; strain ARC2461, OXA-66, TEM-1): 16 µg/mL (≈ 68.6 µM)
MIC (A. baumannii [2]; strain ARC2462, TEM-1, OXA-66): 16 µg/mL (≈ 68.6 µM)
MIC (A. baumannii [2]; strain ARC2598, OXA*, TEM-1, OXA-113): 16 µg/mL (≈ 68.6 µM)
MIC (A. baumannii [2]; strain ARC2635, OXA-65, OXA-40, TEM-1): 32 µg/mL (≈ 137 µM)
MIC (A. baumannii [2]; strain ARC2636, OXA-65, OXA-40, TEM-1): 32 µg/mL (≈ 137 µM)
MIC (A. baumannii [2]; strain ARC2675, SHV-5, OXA-113): 16 µg/mL (≈ 68.6 µM)
MIC (A. baumannii [2]; strain ARC2681, OXA-40, TEM-1, OXA-132): 16 µg/mL (≈ 68.6 µM)
MIC (A. baumannii [2]; strain ARC2682, SHV-5, OXA-113): 4 µg/mL (≈ 17.1 µM)
MIC (A. baumannii [2]; strain ARC2778, OXA-40, TEM-1, OXA-65): 16 µg/mL (≈ 68.6 µM)
MIC (A. baumannii [2]; strain ARC2779 (A. baumannii/calcoaceticus complex), OXA-2, VIM-2): 16 µg/mL (≈ 68.6 µM)
MIC (A. baumannii [2]; strain ARC2780 (A. baumannii/calcoaceticus complex), OXA*, OXA-2, IMP-1): 4 µg/mL (≈ 17.1 µM)
MIC (A. baumannii [2]; strain ARC2782, OXA-66, OXA-23, TEM-1, PER-1): 32 µg/mL (≈ 137 µM)
MIC (A. baumannii [2]; strain ARC3484, TEM-1, OXA-23, OXA-64): 16 µg/mL (≈ 68.6 µM)
MIC (A. baumannii [2]; strain ARC3486, OXA-72, OXA-66, TEM-1): 32 µg/mL (≈ 137 µM)
MIC (A. baumannii [2]; strain ARC3487, OXA-20, OXA-58, OXA-66): 4 µg/mL (≈ 17.1 µM)
MIC (A. baumannii [2]; strain ARC3488, OXA*, OXA-68): 16 µg/mL (≈ 68.6 µM)
MIC (A. baumannii [2]; strain ARC3489, OXA*, OXA-68): 2 µg/mL (≈ 8.57 µM)
MIC (A. baumannii [2]; strain ARC3490, TEM-1+, PSE-2, OXA-69): 32 µg/mL (≈ 137 µM)
MIC (A. baumannii [2]; strain ARC3491 (A. baumannii/calcoaceticus complex), OXA-215): 0.5 µg/mL (≈ 2.14 µM)
MIC (A. baumannii [2]; strain ARC3492, OXA-40, OXA-132, TEM-1): 16 µg/mL (≈ 68.6 µM)
MIC (A. baumannii [2]; strain ARC3493, OXA-40, OXA-66): 64 µg/mL (≈ 274 µM)
MIC (A. baumannii [2]; strain ARC3494, OXA-65): 4 µg/mL (≈ 17.1 µM)
MIC (A. baumannii [2]; strain ARC3495, OXA-40, OXA-109): 32 µg/mL (≈ 137 µM)
MIC (A. baumannii [2]; strain ARC3513, TEM-1, OXA-23, OXA-65): 16 µg/mL (≈ 68.6 µM)
MIC (A. baumannii [2]; strain ARC3657, OXA-130): 32 µg/mL (≈ 137 µM)
MIC (A. baumannii [2]; strain ARC3658, OXA-66, PER-1, TEM-1, OXA-23): 32 µg/mL (≈ 137 µM)
MIC (A. baumannii [2]; strain ARC3659, OXA-23, OXA*): 4 µg/mL (≈ 17.1 µM)
MIC (A. baumannii [2]; strain ARC3882, OXA-23, NDM-1, OXA-10*): > 64 µg/mL
MIC (A. baumannii [2]; strain ARC5073, OXA-23, TEM-1, OXA-64, PER-1): 16 µg/mL (≈ 68.6 µM)
MIC (A. baumannii [2]; strain ARC5074, GES*, TEM-1, OXA-51): 64 µg/mL (≈ 274 µM)
MIC (A. baumannii [2]; strain ARC5075, SHV-5, OXA-113): 16 µg/mL (≈ 68.6 µM)
MIC (A. baumannii [2]; strain ARC5076, TEM-1, OXA-23, OXA-66): 32 µg/mL (≈ 137 µM)
